Each structure is given as a SMILES string. Counter-ions that a name gives are not always drawn.

Chain of Cyclin-dependent kinase 1/G2/mitotic-specific cyclin-B (Q9DGD3 whole entry): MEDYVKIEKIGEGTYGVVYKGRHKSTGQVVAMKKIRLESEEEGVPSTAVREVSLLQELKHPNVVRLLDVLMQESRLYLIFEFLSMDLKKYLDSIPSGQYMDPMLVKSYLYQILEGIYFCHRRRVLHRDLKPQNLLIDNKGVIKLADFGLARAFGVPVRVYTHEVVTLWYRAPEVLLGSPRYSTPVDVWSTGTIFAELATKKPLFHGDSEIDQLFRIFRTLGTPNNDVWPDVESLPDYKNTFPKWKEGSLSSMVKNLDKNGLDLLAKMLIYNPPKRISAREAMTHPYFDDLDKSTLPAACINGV
Chain of Cyclin-dependent kinase 1/G2/mitotic-specific cyclin-B (P15206 whole entry): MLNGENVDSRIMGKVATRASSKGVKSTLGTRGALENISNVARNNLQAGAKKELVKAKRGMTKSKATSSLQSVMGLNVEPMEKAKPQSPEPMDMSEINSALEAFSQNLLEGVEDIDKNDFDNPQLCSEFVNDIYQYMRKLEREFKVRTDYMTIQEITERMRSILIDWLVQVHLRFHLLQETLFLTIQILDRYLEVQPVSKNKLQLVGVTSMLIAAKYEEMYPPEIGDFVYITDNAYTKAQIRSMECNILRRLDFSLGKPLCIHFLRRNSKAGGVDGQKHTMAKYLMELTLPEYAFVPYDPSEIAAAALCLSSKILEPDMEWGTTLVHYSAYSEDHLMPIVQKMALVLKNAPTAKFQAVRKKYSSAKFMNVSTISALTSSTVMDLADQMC

The target in the experiment is Cyclin-dependent kinase 1/G2/mitotic-specific cyclin-B (Marthasterias glacialis, UniProt P15206+Q9DGD3). Put plainly: Kinase Inhibition Assay. The note with it: pH 7.2; 30 °C. The protocol:
Kinase activities were assayed in buffers containing substrate, enzyme, and inhibitor at 30 °C in the presence of 15 uM ATP/ [gamma-32P] ATP. 32P incorporation was measured with a scintillation counter. The IC50 is the inhibitor concentration, which inhibits 50% of kinase activity that catalyzes the transfer of the terminal phosphate from 32P labeled ATP to the substrate.
`CN(C)CCCn1nc(N)c2nc3ccccc3nc21` [3-Amino-1-(3-dimethylamino-prop-1-yl)-1H-pyrazolo[3,4-b]quinoxaline hydrochloride]: the IC50 is more than 10 µM.

As to `Nc1n[nH]c2nc3ccc(Cl)cc3nc12` [6-chloro-1H-pyrazolo[3,4-b]quinoxalin-3-amine], half-maximal inhibition (IC50) was put at 4.56 µM.

In the case of `Nc1nn(C(=O)c2ccncc2)c2nc3ccccc3nc12` [3-amino-1-(pyridin-4-yl-carbonyl)-1H-pyrazolo[3,4-b]quinoxaline], the IC50 was more than 10 µM.

For `CN(C)CCn1nc(N)c2nc3ccccc3nc21` [1-[2-(dimethylamino)ethyl]-1H-pyrazolo[3,4-b]quinoxalin-3-amine], the 50% inhibitory concentration (IC50) is more than 10 µM.

For `CN(C)CCn1nc(N)c2nc3cc(Cl)ccc3nc21` [3-Amino-6-chloro-1-(2-dimethylamino-ethyl)-1H-pyrazolo[3,4-b]quinoxaline], the IC50 was more than 10 µM.

For `CN(C)CCCn1nc(N)c2nc3cc(Cl)ccc3nc21` [6-chloro-1-[3-(dimethylamino)propyl]-1H-pyrazolo[3,4-b]quinoxalin-3-amine], the IC50 is more than 10 µM.

As to `Nc1n[nH]c2nc3ccccc3nc12` [1H-pyrazolo[3,4-b]quinoxalin-3-amine], the IC50 was 0.6 µM.

In the case of `Clc1ccc2nc3[nH]nc(Cl)c3nc2c1` [3,6-Dichloro-1H-pyrazolo[3,4-b]quinoxaline], the IC50 is 15 µM.

As for `COc1ccc2[nH]c3nnc(N)c-3nc2c1` [6-methoxy-1H-pyrazolo[3,4-b]quinoxalin-3-amine], the IC50 worked out at 4.8 µM.

Consider `CCN(CC)CCn1nc(N)c2nc3ccccc3nc21` [1-[2-(diethylamino)ethyl]-1H-pyrazolo[3,4-b]quinoxalin-3-amine], for which the IC50 was more than 10 µM.

Regarding `Cc1cc2nc3c(N)nn(CCCN(C)C)c3nc2cc1C` [1-[3-(dimethylamino)propyl]-6,7-dimethyl-1H-pyrazolo[3,4-b]quinoxalin-3-amine], the IC50 was more than 10 µM.

For the compound `Cc1cc2nc3[nH]nc(N)c3nc2cc1C` [3-Amino-6,7-dimethyl-1H-pyrazolo[3,4-b]quinoxaline], the IC50 was found to be 21 µM.

The compound `CCN(CC)CCn1nc(N)c2nc3cc(Cl)ccc3nc21` [6-chloro-1-[2-(diethylamino)ethyl]-1H-pyrazolo[3,4-b]quinoxalin-3-amine] returned an IC50 of more than 10 µM.

`Clc1n[nH]c2nc3ccccc3nc12` [3-Chloro-1H-pyrazolo[3,4-b]quinoxaline] registered an IC50 of 22 µM.

In turn, `Cc1ccc2nc3[nH]nc(N)c3nc2c1` [3-Amino-6-methyl-1H-pyrazolo[3,4-b]quinoxaline] displayed a 50% inhibitory concentration (IC50) of 3.5 µM.

`Nc1n[nH]c2nc3ccc(C(F)(F)F)cc3nc12` [3-Amino-6-trifluoromethyl-1H-pyrazolo[3,4-b]quinoxaline] registered an IC50 of 4.5 µM.

For `CCN(CC)CCn1nc(N)c2nc3cc(C)c(C)cc3nc21` [3-Amino-6,7-dimethyl-1-(2-diethylamino-ethyl)-1H-pyrazolo[3,4-b]quinoxaline], the IC50 is more than 10 µM.

These data come from BindingDB's records for doi:10.1016/s0968-0896(02)00069-x (Universidad De Navarra, 2002).
